Data as given in patent publication US7563787B2, “Substituted pyrazole compounds” (Miikana Therapeutics, Inc., priority 2005, dated 2009).

Legend:
recombinant Aurora A = target: T1, recombinant Aurora A (Homo sapiens, UniProt O14965); assay: Aurora A (Aurora 2) Inhibition Assay (Z'-Lyte); assay type: biochemical; settings: 100 μM compound; ATP 10 μM; 1 h
T1 construct: purchased Upstate, Lake Placid, N.Y
T1 sequence (O14965 1-403): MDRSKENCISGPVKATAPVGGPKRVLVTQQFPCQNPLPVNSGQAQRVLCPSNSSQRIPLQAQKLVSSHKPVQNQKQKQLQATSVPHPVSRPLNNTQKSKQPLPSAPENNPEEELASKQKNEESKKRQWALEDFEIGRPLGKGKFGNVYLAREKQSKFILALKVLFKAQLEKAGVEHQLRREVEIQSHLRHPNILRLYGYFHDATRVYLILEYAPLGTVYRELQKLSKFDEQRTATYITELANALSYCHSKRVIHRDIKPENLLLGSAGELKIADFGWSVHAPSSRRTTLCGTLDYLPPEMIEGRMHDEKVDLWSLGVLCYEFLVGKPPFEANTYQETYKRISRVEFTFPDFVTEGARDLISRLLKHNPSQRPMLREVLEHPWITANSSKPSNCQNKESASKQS
Procedure: Compounds were tested for their potency against recombinant Aurora A (Upstate, Lake Placid, N.Y.) using the PanVera Z'-Lyte kinase assay kit-Ser/[…] peptide (Invitrogen, Carlsbad, Calif.). […] Assays were carried out in half-area 96-well white polystyrene assay plates (Corning, Corning, N.Y.) in a final volume of 20 μl. The reaction was allowed to proceed for 1 h at room temperature in the dark, at which point the development reagent and stop reagent were added according to the manufacturer's instructions. Coumarin (Ex. 400 nm, Em. 465 nm) and fluorescein (Ex. 400 nm, Em. 565 nm) fluorescence values were measured on a SpectraFluor Plus plate reader (Tecan, Durham, N.C.). The emission ratio (coumarin/fluorescein) was determined and used to calculate the percent phosphorylation for each well. […] Typically 20-40% of the substrate was phosphorylated in wells without inhibitor. Dose-response curves of relative Aurora A activity vs. inhibitor concentration were plotted with Grafit (Erithacus Software, Horley, Surrey, UK).

HCT-116 cell growth = assay: Whole Cell Cytotoxicity Assay: Sulforhodamine B; assay type: cell-based, Human; settings: 100 μM compound, 96 hours, SRB staining; for inhibition at 100 µM: Homo sapiens, HCT-116
Procedure: Human tumor-derived cell lines, HCT116 or MCF7 (ATCC) were plated in a 96 well plate in DMEM containing 10% fetal bovine serum and 2 mM L-glutamine at a density of 500 HCT116 cells or 1,000 MCF7 cells per well and incubated at 37° C., 5% CO2, for 24 hours prior to the addition of experimental compounds. Compounds were added using the dilution series indicated to duplicate plates and the cells were incubated in media plus compound for 96 hours. An additional plate was fixed in 10% TCA at the time of the addition of compound to provide a measurement of the cell population at time zero, the time of drug addition. Following the 96 hour incubation, cells were fixed in situ by gently aspirating off the culture media and then adding 50 ul of ice cold 10% TCA per well and incubation at 4° C. for 60 minutes. The plates were washed with tap water five times and allowed to air dry for 5 minute. 50 ul of a 0.4% (w/v) Sulforhodamine B solution in 1% (v/v) acetic acid was added per well and the cells were incubated for 30 minutes at room temperature. Following staining, plates were washed four times with 1% acetic acid to remove any unbound dye and then allowed to air dry for 5 minutes. The stain was solubilized with 100 ul of 10 mM Tris pH 10.5 per well and placed on an orbital rotator for 5 minutes. The absorbance was read at 570 nm. Percentage growth was calculated using the absorbance readings from the time zero plate (Tz) and the dilution series plate […] which included a column of cells grown in media without compound as a control (C) using the formulas: [(Ti−Tz)/(C−Tz)]×100 for concentrations for which Ti>/=Tz [(Ti−Tz)/Tz]×100 for concentrations for which Ti<Tz.
Three dose response parameters were calculated for each experimental agent. Growth inhibition of 50% (GI50) was calculated from [(Ti−Tz)/(C−Tz)]×100=50, which was the drug concentration resulting in a 50% reduction in the net protein increase (as measured by SRB staining) in control cells during the drug incubation. The drug concentration resulting in total growth inhibition (TGI) was calculated from Ti=Tz. The LC50 (concentration of drug resulting in a 50% reduction in the measured protein at the end of the drug treatment as compared to that at the beginning) indicating a net loss of cells following treatment was calculated from [(Ti−Tz)/Tz]×100=−50. Values are calculated for each of these three parameters if the level of activity was reached; however, if the effect was not reached or was exceeded, the value for that parameter is expressed as greater or less than the maximum or minimum concentration tested.

With “2-(4-methoxystyryl)-N-(5-methyl-1H-pyrazol-3-yl)-6-(4-methylpiperazin-1-yl)pyrimidin-4-amine [Example 161]” the “% Inhibition of Aurora A @ 100 μM” value (recombinant Aurora A) was 100% and the “% Inhibition of HCT-116 cell growth @ 100 μM” value (HCT-116 cell growth) was 93%.
In the case of `Cc1cc(Nc2nc(/C=C/c3ccccc3)nc(N3CCN(C)CC3)c2[N+](=O)[O-])[nH]n1` [Example 4, 6-(4-methylpiperazin-1-yl)-N-(3-methyl-1H-pyrazol-5-yl)-5-nitro-2-[(E)-2-phenylvinyl]pyrimidin-4-amine], the inhibition at 100 µM (recombinant Aurora A) is reported as 91% and the inhibition at 100 µM (HCT-116 cell growth) is reported as 87%.
Work on `Cc1cc(Nc2nc(/C=C/c3ccccc3)nc(Nc3cc(C)n[nH]3)c2N)[nH]n1` [Example 11] yielded an inhibition at 100 µM (recombinant Aurora A) of 98% and an inhibition at 100 µM (HCT-116 cell growth) of 99%.
`Cc1cc(Nc2nc(/C=C/c3ccccc3)nc(N3CCOCC3)c2N)[nH]n1` [Example 12, N-(3-methyl-1H-pyrazol-5-yl)-6-(morpholin-4-yl)-2-[(E)-2-phenylvinyl]pyrimidin-4,5-diamine] was tested, and the inhibition at 100 µM (recombinant Aurora A) was 100% and the inhibition at 100 µM (HCT-116 cell growth) was 99%.
Work on `Cc1cc(Nc2nc(/C=C/c3ccccc3)nc(N3CCNCC3)c2N)[nH]n1` [Example 13, N-(3-methyl-1H-pyrazol-5-yl)-6-(piperazin-1-yl)-2-[(E)-2-phenylvinyl]pyrimidin-4,5-diamine] yielded an inhibition at 100 µM (recombinant Aurora A) of 93%.
In the case of `Cc1cc(Nc2nc(/C=C/c3ccccc3)nc(N3CCCCC3)c2N)[nH]n1` [Example 14, N-(3-methyl-1H-pyrazol-5-yl)-6-(piperidin-1-yl)-2-[(E)-2-phenylvinyl]pyrimidin-4,5-diamine], the inhibition at 100 µM (recombinant Aurora A) is reported as 98%.
Compound `Cc1cc(Nc2nc(/C=C/c3ccccc3)nc(N3CCCC3)c2N)[nH]n1` [Example 15, N-(3-methyl-1H-pyrazol-5-yl)-6-(pyrrolidin-1-yl)-2-[(E)-2-phenylvinyl]pyrimidin-4,5-diamine] has an inhibition at 100 µM (recombinant Aurora A) of 100% and an inhibition at 100 µM (HCT-116 cell growth) of 91%.
Work on `CCOC(=O)c1nc(/C=C/c2ccccc2)nc(Nc2cc(C)n[nH]2)c1[N+](=O)[O-]` [Example 17, ethyl 6-[(3-methyl-1H-pyrazol-5-yl)amino]-5-nitro-2-[(E)-2-phenylvinyl]pyrimidine-4-carboxylate] yielded an inhibition at 100 µM (recombinant Aurora A) of 62% and an inhibition at 100 µM (HCT-116 cell growth) of 93%.
For `CCOC(=O)c1nc(/C=C/c2ccc(Cl)cc2)nc(Nc2cc(C)n[nH]2)c1N` [Example 19, ethyl 5-amino-2-[(E)-2-(4-chlorophenyl)vinyl]-6-[(3-methyl-1H-pyrazol-5-yl)amino]pyrimidine-4-carboxylate], the inhibition at 100 µM (recombinant Aurora A) was 99% and the inhibition at 100 µM (HCT-116 cell growth) was 96%.
For `CCOC(=O)c1nc(/C=C/c2ccc(C(F)(F)F)cc2)nc(Nc2cc(C)n[nH]2)c1N` [Example 20, ethyl 5-amino-6-[(3-methyl-1H-pyrazol-5-yl)amino]-2-{(E)-2-[4-(trifluoromethyl)phenyl]vinyl}pyrimidine-4-carboxylate], the inhibition at 100 µM (recombinant Aurora A) was 77% and the inhibition at 100 µM (HCT-116 cell growth) was 97%.
`CCOC(=O)c1nc(/C=C/c2ccc(C)cc2)nc(Nc2cc(C)n[nH]2)c1N` [Example 21, ethyl 5-amino-2-[(E)-2-(4-methylphenyl)vinyl]-6-[(3-methyl-1H-pyrazol-5-yl)amino]pyrimidine-4-carboxylate] was tested, and the inhibition at 100 µM (recombinant Aurora A) was 100% and the inhibition at 100 µM (HCT-116 cell growth) was 93%.
For `CCOC(=O)c1nc(/C=C/c2cccc(F)c2)nc(Nc2cc(C)n[nH]2)c1N` [Example 22, ethyl 5-amino-2-[(E)-2-(3-fluorophenyl)vinyl]-6-[(3-methyl-1H-pyrazol-5-yl)amino]pyrimidine-4-carboxylate], the inhibition at 100 µM (recombinant Aurora A) was 97% and the inhibition at 100 µM (HCT-116 cell growth) was 85%.
Work on `CCOC(=O)c1nc(/C=C/c2ccc(OC)cc2)nc(Nc2cc(C)n[nH]2)c1N` [Example 23, ethyl 5-amino-2-[(E)-2-(4-methoxyphenyl)vinyl]-6-[(3-methyl-1H-pyrazol-5-yl)amino]pyrimidine-4-carboxylate] yielded an inhibition at 100 µM (recombinant Aurora A) of 99% and an inhibition at 100 µM (HCT-116 cell growth) of 91%.
Work on `Cc1cc(Nc2nc(/C=C/c3ccccc3)nc(C(=O)OC3CCN(C)CC3)c2N)[nH]n1` [Example 24, 1-methylpiperidin-4-yl 5-amino-6-[(3-methyl-1H-pyrazol-5-yl)amino]-2-[(E)-2-phenylvinyl]pyrimidine-4-carboxylate] yielded an inhibition at 100 µM (recombinant Aurora A) of 100% and an inhibition at 100 µM (HCT-116 cell growth) of 99%.
`Cc1cc(Nc2nc(/C=C/c3ccccc3)nc(C(=O)NCCN3CCOCC3)c2N)[nH]n1` [Example 25, N-(2-morphholin-4-ylethyl)-5-amino-6-[(3-methyl-1H-pyrazol-5-yl)amino]-2-[(E)-2-phenylvinyl]pyrimidine-4-carboxamide] was tested, and the inhibition at 100 µM (recombinant Aurora A) was 100% and the inhibition at 100 µM (HCT-116 cell growth) was 95%.
`Cc1cc(Nc2cc(Cl)nc(/C=C/c3ccccc3)n2)n[nH]1` [Example 34, 6-chloro-N-(3-methyl-1H-pyrazol-5-yl)-2-[(E)-2-phenylvinyl]pyrimidin-4-amine] showed an inhibition at 100 µM (recombinant Aurora A) of 99% and an inhibition at 100 µM (HCT-116 cell growth) of 98%.
`COC(=O)c1ccc(/C=C/c2nc(Cl)c([N+](=O)[O-])c(Nc3cc(C)[nH]n3)n2)cc1` [Example 37, methyl 4-((E)-2-{4-chloro-6-[(3-methyl-1H-pyrazol-5-yl)amino]-5-nitropyrimidin-2-yl}vinyl)benzoate] was tested, and the inhibition at 100 µM (recombinant Aurora A) was 80%.
Work on `COC(=O)c1ccc(/C=C/c2nc(Nc3cc(C)[nH]n3)c([N+](=O)[O-])c(N3CCN(C)CC3)n2)cc1` [Example 38, methyl 4-((E)-2-{4-(4-methylpiperazin-1-yl)-6-[(3-methyl-1H-pyrazol-5-yl)amino]-5-nitropyrimidin-2-yl}vinyl)benzoate] yielded an inhibition at 100 µM (recombinant Aurora A) of 99%.
In the case of `COC(=O)c1ccc(/C=C/c2nc(Nc3cc(C)[nH]n3)c(N)c(N3CCN(C)CC3)n2)cc1` [Example 39, methyl 4-((E)-2-{5-amino-4-(4-methylpiperazin-1-yl)-6-[(3-methyl-1H-pyrazol-5-yl)amino]-pyrimidin-2-yl}vinyl)benzoate], the inhibition at 100 µM (recombinant Aurora A) is reported as 100% and the inhibition at 100 µM (HCT-116 cell growth) is reported as 97%.
Compound `Cc1cc(Nc2cc(N3CCN(C)CC3)nc(/C=C/c3ccc(Cl)cc3)n2)n[nH]1` [Example 49, 2-(4-chlorostyryl)-N-(5methyl-1H-pyrazol-3-yl)-6-(4-methylpiperazin-1-yl)pyrimidin-4-amine] has an inhibition at 100 µM (recombinant Aurora A) of 100% and an inhibition at 100 µM (HCT-116 cell growth) of 75%.
Compound `COc1cc(/C=C/c2nc(Nc3cc(C)[nH]n3)cc(N3CCN(C)CC3)n2)cc(OC)c1` [Example 50, 2-(3,5-dimethoxystyryl)-N-(5-methyl-1H-pyrazol-3-yl)-6-(4-methylpiperazin-1-yl)pyrimidin-4-amine] has an inhibition at 100 µM (recombinant Aurora A) of 100% and an inhibition at 100 µM (HCT-116 cell growth) of 98%.
`Cc1cc(Nc2cc(N3CCOCC3)nc(/C=C/c3ccccc3)n2)n[nH]1` [Example 64, N-(5-methyl-1H-pyrazol-3-yl)-6-morpholino-2-styrylpyrimidin-4-amine] showed an inhibition at 100 µM (recombinant Aurora A) of 100% and an inhibition at 100 µM (HCT-116 cell growth) of 98%.
Compound `Cc1cc(Nc2cc(NCCN(C)C)nc(/C=C/c3ccccc3)n2)n[nH]1` [Example 66, N^4-(2-(dimethylamino)ethyl)-N^6-(5-methyl-1H-pyrazol-3-yl)-2-styrylpyrimidine-4,6-diamine] has an inhibition at 100 µM (recombinant Aurora A) of 100% and an inhibition at 100 µM (HCT-116 cell growth) of 98%.
In the case of `Cc1ccc(/C=C/c2nc(Nc3cc(C)[nH]n3)c([N+](=O)[O-])c(N3CCN(C)CC3)n2)cc1` [Example 169], the inhibition at 100 µM (recombinant Aurora A) is reported as 95%.
`Cc1cc(Nc2nc(/C=C/c3ccc(Cl)cc3)nc(N3CCN(C)CC3)c2[N+](=O)[O-])n[nH]1` [Example 171] was tested, and the inhibition at 100 µM (recombinant Aurora A) was 89%.
